Laboratory results taken from patent publication US20020012620A1, “BACTERIAL LEACHING OF COPPER AND ZINC WITHOUT IRON LEACHING” (priority 1998, published 2002).
Where “and” joins values, the source holds several entries; their conditions need not be identical. Equal entries are not always repeated.

Key:
T. thiooxidans [1] = assay: Bacterial leaching of flotation tailings with T. thiooxidans; type: cell-based, Thiobacillus thiooxidans
Description: (§1) Bacterial leaching was performed in shake flask experiments with 250 ml Erlenmeyer™ flasks containing 95 ml of HP medium with and without inhibitors unless otherwise specified, 4 ml of inoculum (Fe^2+-grown T. ferrooxidans, S^0-grown T. thiooxidans or both) and 5 g of floatation tailings supplied by Cominco Research were used, as described below. The flasks were grown at 26° C. on a rotary shaker at 150 rpm for 14 days. At various time intervals, 5 ml samples were taken to determine the concentrations of dissolved zinc and iron in the leachate as well as the percentage of zinc and iron remaining in the precipitate (after filtration of the leachate).

T. ferrooxidans [2] = type: cell-based, Thiobacillus ferrooxidans
Description: as §1

[3] = tested on: Thiobacillus ferrooxidans; assay: Fe^2+ oxidation by resting cells (oxygen consumption rate, Oxygraph); type: cell-based; settings: for inhibition of Fe^2+ oxidation: pH 3
Description: For the resting cell experiments, cells from large scale growth were filtered through Whatman™ No. 1 filter paper under suction before centrifugation at 8000× g. The cells were washed in 0.1 M β-alanine-H2SO4 (pH 2.3) and suspended in the same buffer to a concentration of 50 mg wet cells per ml.
The rate of ferrous iron and sulfur oxidation by the resting cells was determined by the oxygen consumption rate (nmol O2/min) in a Gilson™ Oxygraph with a Clark™ oxygen electrode at 25° C. The reaction mixture in a total volume of 1.2 ml contained 10-100 μl cell suspension, 0.5 μmol FeSO4 or 0.1 ml elemental sulfur suspension (32 mg in 500 ppm Tween-80™) and 0.1 M β-alanine-H2SO4 at pH 3.0 (standard condition) or varying inhibitory concentrations of salts at pH 3.0, as described below. Specifically, the effect of standard biological oxidation inhibitors, sodium azide and sodium cyanide in 0.1 M β-alanine-H2SO4 at pH 3.0 was studied.

[4] = tested on: bacterial leaching of a complex sulfide ore; assay: Bacterial leaching of a complex sulfide ore from the Flin Flon mine; type: cell-based, Thiobacillus thiooxidans SM-7
Description: In this embodiment of the invention, bacterial strains Thiobacillus ferrooxidans SM-4 and Thiobacillus thiooxidans SM-6 (FIGS. 1, 3 and 4 and Table 2) or SM-7 (Table 5) were used. Specifically, T. ferrooxidans was grown on Fe^2+ or S^0 while T. thiooxidans was grown only on sulfur. HP medium, described in Suzuki et al, 1990, Appl Environ Microbiol 56:1620-1626, consisting of: 0.4 g (NH4)2SO4, 0.1 g K2HPO4, 0.4 g MgSO4.7H2O per liter, adjusted to pH 2.3 with H2SO4 was used for growth of bacteria on Fe^2+, for growth in a Micro-oxymax™ respirometer (both Fe^2+ and S^0 growth), and for mineral leaching experiments, as described below. For growth on Fe^2+, 33.3 g FeSO4.7H2O per liter (pH 2.3, filter-sterilized) was added to the above-described HP medium. Cultures were grown in shake flasks (100 ml) with 10% inoculum (v/v) in 250 ml Erlenmeyer™ flasks at 25° C. at 120 rpm for 24 hours. It is of note that for large scale growth, medium volume and flask size were increased.
. In fact, the highest level of Cu leaching using this ore is nearly five times greater than previously reported values in the absence of additional anions (Lizama and Suzuki, 1988, Biotechnol Bioeng 32: 110-116). […] That is, copper and zinc can be recovered from a complex ore without the need for separation simply by replacing the media following completion of copper leaching because of this lag time.

T. ferrooxidans [5] = tested on: T. ferrooxidans
Description: (§2) Growth inhibition studies were carried out in a Micro-oxymax™ respirometer at Cominco Research in Trail, British Columbia, wherein the O2 and CO2 consumption (at 52 minute intervals) of cultures at 26° C. were monitored over time (45-50 hours). Each flask contained a total volume of 100 ml, comprised of 5 ml inoculum culture plus 95 ml HP medium with varying concentrations of inhibitors plus Fe^2+ or S^0 as growth substrate (33.3 g FeSO4.7H2O or 25 g sulfur per liter). In the S^0 medium, HP medium was supplemented with 18 mg FeSO4.7H2O per liter. A growth curve was generated from the monitored O2 and CO2 consumption rates over time, as described below.

T. thiooxidans [6] = tested on: T. thiooxidans
Description: as §2

[7] = tested on: Thiobacillus ferrooxidans; assay: S^0 oxidation by resting cells (oxygen consumption rate, Oxygraph); type: cell-based
[8] = tested on: bioleaching of chalcopyrite (CuFeS2) and sphalerite mixture; type: cell-based
Description: as §1

[9] = tested on: T. ferrooxidans and T. thiooxidans
Description: as §1

[10] = Acidithiobacillus ferrooxidans, pH 3, read-out: inhibition of Fe^2+ oxidation
[11] = Acidithiobacillus ferrooxidans, pH 3, read-out: inhibition of S^0 oxidation

Compound	Fe leaching (T. thiooxidans [1])	Fe leaching (T. ferrooxidans [2])	Zn leaching (T. ferrooxidans [2])	inhibition of Fe^2+ oxidation [3]	Cu leaching [4]	Zn leaching [4]	Fe^2+ oxidation during growth (T. ferrooxidans [5])	S^0 oxidation during growth (T. thiooxidans [6])	inhibition of S^0 oxidation ([7]; pH 3)	extraction of Zn [8]	Fe leaching [9]	inhibition of Fe leaching relative to Zn leaching [9]	reduction in Zn leaching (T. ferrooxidans [2])	iron oxidation [8]	inhibition at 10 µM [3, 10]	inhibition at 50 µM [3, 10]	inhibition at 10 µM [7, 11]	inhibition at 50 µM [7, 11]
potassium nitrate	reduced Fe leaching at high concentrations, albeit to a much smaller degree	reduced the Fe leaching similar to phosphate	considerably inhibited	90% and 100%														
potassium chloride	reduced Fe leaching at high concentrations, albeit to a much smaller degree			30% and 40%	stimulation	stimulation	inhibited	stimulated	10%	stimulated								
potassium phosphate	strongly inhibited			60%	stimulation	stimulation	inhibited	stimulated		slightly reduced	no Fe leaching	most effective inhibitor of Fe leaching without inhibiting Zn leaching extensively	50%	reduced				
[N-]=[N+]=[N-] [sodium azide, reference compound]															90%	95%	35%	90%
